Data as given in ChEMBL document CHEMBL3120105, “Identification of weak points of hepatitis C virus NS3 protease inhibitors using surface plasmon resonance biosensor-based interaction kinetic analysis and genetic variants” (J Med Chem, 2014).
Where a SMILES comes first, the peptide text is derived from it. [ ]: non-standard residue; d: D form. dGla = N[C@H](CC(C(=O)O)C(=O)O)C(=O)O; Cha = N[C@@H](CC1CCCCC1)C(=O)O

Assays:
[1] = Inhibition of Hepatitis C virus genotype 3a full-length NS3 protease assessed as equilibrium dissociation constant by surface plasmon resonance biosensor-based interaction kinetic analysis; set-up: species or system Hepatitis C virus subtype 3a
[2] = Inhibition of Hepatitis C virus genotype 1b full-length NS3/NS4A protease assessed as equilibrium dissociation constant by surface plasmon resonance biosensor-based interaction kinetic analysis; set-up: species or system Hepatitis C virus subtype 1b
[3] = Inhibition of Hepatitis C virus genotype 1b NS3 protease domain assessed as overall/observed affinity by surface plasmon resonance biosensor-based interaction kinetic analysis; set-up: species or system Hepatitis C virus subtype 1b
[4] = Inhibition of Hepatitis C virus genotype 1b full-length NS3 protease assessed as equilibrium dissociation constant by surface plasmon resonance biosensor-based interaction kinetic analysis; set-up: species or system Hepatitis C virus subtype 1b
[5] = Inhibition of Hepatitis C virus genotype 1b full-length NS3/NS4A protease assessed as overall/observed affinity by surface plasmon resonance biosensor-based interaction kinetic analysis; set-up: species or system Hepatitis C virus subtype 1b
[6] = Inhibition of Hepatitis C virus genotype 1b NS3 protease domain assessed as equilibrium dissociation constant by surface plasmon resonance biosensor-based interaction kinetic analysis; set-up: species or system Hepatitis C virus subtype 1b
[7] = Inhibition of Hepatitis C virus genotype 3a full-length NS3 protease assessed as overall/observed affinity by surface plasmon resonance biosensor-based interaction kinetic analysis; set-up: species or system Hepatitis C virus subtype 3a
[8] = Inhibition of Hepatitis C virus genotype 1b full-length NS3 protease assessed as overall/observed affinity by surface plasmon resonance biosensor-based interaction kinetic analysis; set-up: species or system Hepatitis C virus subtype 1b
[9] = Inhibition of Hepatitis C virus genotype 1a full-length NS3 protease assessed as equilibrium dissociation constant by surface plasmon resonance biosensor-based interaction kinetic analysis; set-up: species or system Hepatitis C virus subtype 1a
[10] = Inhibition of Hepatitis C virus genotype 1a full-length NS3/NS4A protease assessed as equilibrium dissociation constant by surface plasmon resonance biosensor-based interaction kinetic analysis; set-up: species or system Hepatitis C virus subtype 1a
[11] = Inhibition of Hepatitis C virus genotype 1a full-length NS3 protease assessed as overall/observed affinity by surface plasmon resonance biosensor-based interaction kinetic analysis; set-up: species or system Hepatitis C virus subtype 1a
[12] = Inhibition of Hepatitis C virus genotype 1a full-length NS3/NS4A protease assessed as overall/observed affinity by surface plasmon resonance biosensor-based interaction kinetic analysis; set-up: species or system Hepatitis C virus subtype 1a

`CC(C)(C)NC(=O)N[C@H](C(=O)N1C[C@H]2[C@@H]([C@H]1C(=O)NC(CC1CCC1)C(=O)C(N)=O)C2(C)C)C(C)(C)C` (stereo partly specified) [BOCEPREVIR] gave a Kd [1] of 1700 nM, a Kd [2] of 7700 nM and a Kd [3] of 3200 nM. The Kd [4] was 16000 nM, the Kd [5] was 38 nM and the Kd [6] was 16000 nM. For the same compound, the Kd [7] was 3.9 nM and the Kd [8] was 90 nM.
Work on `COc1ccc2c(O[C@@H]3C[C@H]4C(=O)N[C@]5(C(=O)O)C[C@H]5/C=C\CCCCC[C@H](NC(=O)OC5CCCC5)C(=O)N4C3)cc(-c3csc(NC(C)C)n3)nc2c1` [CILUPREVIR] yielded a Kd [1] of 3300 nM, a Kd [2] of 71 nM and a Kd [3] of 2.5 nM. For the same compound, the Kd [4] was 220 nM, the Kd [5] was 71 nM and the Kd [9] was 3 nM. For the same compound, the Kd [10] was 2.1 nM, the Kd [6] was 7.3 nM and the Kd [7] was 160 nM. For the same compound, the Kd [11] was 1.3 nM, the Kd [8] was 67 nM and the Kd [12] was 2.1 nM.
`CC[C@H](C)[C@H](NC(=O)[C@H](CC(C)C)NC(=O)[C@@H](CC(C(=O)O)C(=O)O)NC(=O)[C@H](CC(=O)O)NC(C)=O)C(=O)N[C@@H](CC1CCCCC1)C(=O)N[C@@H](CS)C(=O)O` (Ac-D[dGla]LI[Cha]C-OH) gave a Kd [1] of 1400 nM, a Kd [2] of 5800 nM and a Kd [3] of 3300 nM. For the same compound, the Kd [4] was 7200 nM, the Kd [5] was 2000 nM and the Kd [9] was 3900 nM. It also gave a Kd [10] of 36000 nM, a Kd [6] of 7200 nM and a Kd [7] of 870 nM. It also gave a Kd [11] of 200 nM, a Kd [8] of 5600 nM and a Kd [12] of 17000 nM.
`CCC[C@H](NC(=O)[C@@H]1[C@H]2CCC[C@H]2CN1C(=O)[C@@H](NC(=O)[C@@H](NC(=O)c1cnccn1)C1CCCCC1)C(C)(C)C)C(=O)C(=O)NC1CC1` [TELAPREVIR] showed a Kd [1] of 66000 nM, a Kd [2] of 67 nM and a Kd [3] of 3000 nM. It also gave a Kd [4] of 8.6 nM, a Kd [5] of 66 nM and a Kd [9] of 2000 nM. The Kd [10] was 14000 nM, the Kd [6] was 4100 nM and the Kd [7] was 1000 nM. The Kd [11] was 340 nM, the Kd [8] was 8.5 nM and the Kd [12] was 17 nM.
For `CC(C)(C)OC(=O)N[C@H]1CCCCC/C=C\[C@@H]2C[C@@]2(C(=O)NS(=O)(=O)C2CC2)NC(=O)[C@@H]2C[C@@H](OC(=O)N3Cc4cccc(F)c4C3)CN2C1=O` [DANOPREVIR], the Kd [1] was 21 nM, the Kd [2] was 6.5 nM and the Kd [3] was 10000 nM. The Kd [4] was 1.6 nM, the Kd [5] was 6.5 nM and the Kd [9] was 2.5 nM. It also gave a Kd [10] of 4 nM, a Kd [6] of 19000 nM and a Kd [7] of 0.52 nM. The Kd [11] was 0.13 nM, the Kd [8] was 1.6 nM and the Kd [12] was 1.6 nM.
